Assay results: PubChem BioAssay (NCI)
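Exposure lasted 48 hours, with cells grown in 96-well plates and compounds tested at five concentrations. TGI: total growth inhibition.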

Key:
Assay in all cases: NCI anticancer screen, dose series, 48 h
[1] = test system: HT29 colon
[2] = test system: NCI-H522 lung
[3] = test system: MOLT-4 leukemia
[4] = test system: SNB-75 CNS
[5] = test system: SW-620 colon
[6] = test system: SK-MEL-5 melanoma
[7] = test system: SF-295 CNS
[8] = test system: CCRF-CEM leukemia
[9] = test system: COLO 205 colon
[10] = test system: A498 renal
[11] = test system: MDA-MB-435
[12] = test system: NCI-H226 lung
[13] = test system: 786-0 renal
[14] = test system: MDA-N
[15] = test system: NCI-H460 lung
[16] = test system: HOP-62 NSCLC
[17] = test system: HCT-15 colon
[18] = test system: TK-10 renal
[19] = test system: ACHN renal
[20] = test system: KM12 colon

| Structure (SMILES) | TGI [1] | TGI [2] | TGI [3] | TGI [4] | TGI [5] | TGI [6] | TGI [7] | TGI [8] | TGI [9] | TGI [10] | TGI [11] | TGI [12] | TGI [13] | TGI [14] | TGI [15] | TGI [16] | TGI [17] | TGI [18] | TGI [19] | TGI [20] |
| --- | --- | --- | --- | --- | --- | --- | --- | --- | --- | --- | --- | --- | --- | --- | --- | --- | --- | --- | --- | --- |
| CCN1CC2=C(NC(=S)NC2c2cc(OC)c(OC)c(OC)c2)/C(=C/c2cc(OC)c(OC)c(OC)c2)C1 (stereo not given) | > 100 µM | 55.9 µM | > 100 µM | 20.8 µM | > 100 µM | 40.1 µM | > 100 µM | > 100 µM | 52.9 µM | 87.8 µM | > 100 µM | > 100 µM | > 100 µM | > 100 µM | > 100 µM | > 100 µM | > 100 µM | > 100 µM | > 100 µM | > 100 µM |
| c1ccc2sc(C3(N4CCCCC4)CCCCCC3)cc2c1 | 31.7 µM | 32.8 µM | 29.6 µM | 42 µM | 25 µM | 31.3 µM | 49.1 µM | 26.1 µM | 31.8 µM | 33.7 µM | 55.2 µM | 33.7 µM | 47.4 µM | > 100 µM | 38.6 µM | 60.9 µM | 34.8 µM | 49.2 µM | 35 µM | 31.2 µM |
| CCCN(CCCCN1C(=O)c2ccccc2C1=O)CC1COc2ccccc2O1 (stereo not given) | > 100 µM | > 100 µM | 66.5 µM | > 100 µM | > 100 µM | > 100 µM | > 100 µM | 88.8 µM | > 100 µM | > 100 µM | > 100 µM | > 100 µM | > 100 µM | > 100 µM | > 100 µM | > 100 µM | > 100 µM | > 100 µM | > 100 µM | > 100 µM |
| CCCC(=O)OC[n+]1cccc(-c2c(COC(=O)NC(C)C)c(COC(=O)NC(C)C)c3n2CCC3)c1 | > 100 µM | 71.8 µM | > 83.3 µM | > 100 µM | > 100 µM | > 100 µM | > 100 µM | > 66.3 µM | > 100 µM | > 61.6 µM | > 100 µM | > 100 µM | > 100 µM | > 100 µM | > 100 µM | > 100 µM | > 100 µM | > 100 µM | > 100 µM | > 100 µM |
| Cc1nc2ccccc2c(=O)n1NC(=O)c1ccccc1O | > 100 µM | > 100 µM | > 100 µM | > 100 µM | > 100 µM | > 100 µM | > 100 µM | > 100 µM | > 100 µM | > 100 µM | > 100 µM | > 100 µM | > 100 µM | > 100 µM | > 100 µM | > 100 µM | > 100 µM | > 100 µM | > 100 µM | > 100 µM |
| CSc1nc2c(N)ncnc2n1C | > 100 µM | > 100 µM | > 100 µM | > 100 µM | > 100 µM | > 100 µM | > 100 µM | > 100 µM | > 100 µM | > 100 µM | > 100 µM | > 100 µM | > 100 µM | > 100 µM | > 100 µM | > 100 µM | > 100 µM | > 100 µM | > 100 µM | > 100 µM |
| [N-]=[N+]=Nc1c([N+](=O)[O-])c(Cl)nc2ccccc12 | 5.09 µM | 0.866 µM | 0.89 µM | 22.1 µM | 1.73 µM | 21.3 µM | 38.5 µM | 1.44 µM | 3.29 µM | 26.8 µM | 6.64 µM | 33.5 µM | 1.11 µM | 6.56 µM | 33.2 µM | 41.4 µM | 3.77 µM | 3.78 µM | 3.22 µM | 21.1 µM |
| CCOC(=O)c1cccc([N+](=O)[O-])c1N | > 100 µM | > 100 µM | > 100 µM | > 100 µM | > 100 µM | > 100 µM | > 100 µM | > 100 µM | > 100 µM | > 100 µM | > 100 µM | > 100 µM | > 100 µM | > 100 µM | > 100 µM | > 100 µM | > 100 µM | > 100 µM | > 100 µM | > 100 µM |
| Cc1c[nH]c(C(=O)O)c1-c1ccc2c(-c3ccccc3)nc3ccccc3n12 | 70.5 µM | 60.6 µM | 94.8 µM | 56.4 µM | > 100 µM | > 100 µM | 71.1 µM | > 100 µM | > 100 µM | 28.3 µM | 78.1 µM | 57.8 µM | > 100 µM | 48.4 µM | > 100 µM | 46.4 µM | 94.1 µM | > 100 µM | > 100 µM | 56.8 µM |
